From DBAASP
Values after ≈ are worked out from the molar mass of the structure shown. Blank lines part the entries; values can stand above or below the compound they belong to.

Tests used:
Test in all cases: ≥ marks a high value that may be exact or a test limit, other limits are often not marked, values filed in µg/mL are converted to µM
[1] = test system: Bacillus subtilis ATCC 6633
[2] = test system: Corynebacterium xerosis C875
[3] = test system: Enterococcus faecalis ATCC 29212
[4] = test system: Escherichia coli ATCC 25922
Escherichia coli DC2 = test system: Escherichia coli DC2
Escherichia coli UB1005 = test system: Escherichia coli UB1005
[5] = test system: Pseudomonas aeruginosa ATCC 27853
[6] = test system: Staphylococcus aureus ATCC 25923
[7] = test system: Staphylococcus epidermidis C621
Botrytis cinerea = test system: Botrytis cinerea
[8] = test system: Candida albicans ATCC 10231
[9] = test system: Escherichia coli ATCC 11775
[10] = test system: Staphylococcus aureus ATCC 12600

Compound: CSCC[C@H](NC(=O)[C@H](C)NC(=O)[C@H](C)NC(=O)[C@@H]1CCCN1C(=O)[C@H](CO)NC(=O)[C@@H](N)CC(C)C)C(=O)N[C@@H](C)C(=O)N[C@@H](CO)C(=O)N[C@@H](CC(C)C)C(=O)N[C@@H](C)C(N)=O [LSPAAMASLA]
- MIC (Botrytis cinerea): ≥ 200 µM
- MIC [8]: > 200 µM
- MIC [9]: ≥ 200 µM
- MIC [10]: ≥ 200 µM

Compound: C[C@H](NC(=O)[C@H](C)NC(=O)[C@H](C)NC(=O)[C@H](CS)NC(=O)[C@H](C)NC(=O)[C@H](C)NC(=O)[C@H](C)NC(=O)[C@H](CCCCN)NC(=O)[C@@H](N)CCCCN)C(=O)N[C@@H](C)C(=O)N[C@@H](C)C(=O)N[C@@H](CS)C(=O)N[C@@H](C)C(=O)N[C@@H](C)C(=O)N[C@@H](Cc1c[nH]c2ccccc12)C(=O)N[C@@H](C)C(=O)N[C@@H](C)C(=O)N[C@@H](CS)C(=O)N[C@@H](C)C(=O)N[C@@H](C)C(=O)N[C@@H](C)C(=O)N[C@@H](CCCCN)C(=O)N[C@@H](CCCCN)C(=O)N[C@@H](CCCCN)C(=O)N[C@@H](CCCCN)C(N)=O [KKAAACAAAAACAAWAACAAAKKKK]
- MIC [2]: 1 µM (≈ 2.35 µg/mL)
- MIC (Escherichia coli DC2): 8 µM (≈ 18.8 µg/mL)
- MIC (Escherichia coli UB1005): 16 µM (≈ 37.6 µg/mL)
- MIC [7]: ≥ 32 µM

Compound: C[C@H](NC(=O)[C@H](C)NC(=O)[C@H](C)NC(=O)[C@H](Cc1ccccc1)NC(=O)[C@H](C)NC(=O)[C@H](C)NC(=O)[C@H](Cc1c[nH]c2ccccc12)NC(=O)[C@H](C)NC(=O)[C@H](C)NC(=O)[C@H](Cc1ccccc1)NC(=O)[C@H](C)NC(=O)[C@H](C)NC(=O)[C@H](C)NC(=O)[C@H](C)NC(=O)[C@H](C)NC(=O)[C@H](Cc1ccccc1)NC(=O)[C@H](C)NC(=O)[C@H](C)NC(=O)[C@H](C)NC(=O)[C@H](CCCCN)NC(=O)[C@H](CCCCN)NC(=O)[C@H](CCCCN)NC(=O)[C@H](CCCCN)NC(=O)[C@H](CCCCN)NC(=O)[C@@H](N)CCCCN)C(N)=O [KKKKKKAAAFAAAAAFAAWAAFAAA]
- MIC [2]: 1 µM (≈ 2.48 µg/mL)
- MIC [4]: 16 µM (≈ 39.7 µg/mL)
- MIC (Escherichia coli DC2): 8 µM (≈ 19.8 µg/mL)
- MIC (Escherichia coli UB1005): 16 µM (≈ 39.7 µg/mL)
- MIC [5]: 32 µM (≈ 79.4 µg/mL)
- MIC [7]: 4 µM (≈ 9.92 µg/mL)

Now from value to compound:

- MIC [1]: 1 µM (≈ 2.48 µg/mL)
- MIC [2]: 0.25 µM (≈ 0.62 µg/mL)
- MIC [3]: > 32 µM
- MIC [4]: > 32 µM
- MIC (Escherichia coli DC2): 4 µM (≈ 9.92 µg/mL)
- MIC (Escherichia coli UB1005): 16 µM (≈ 39.7 µg/mL)
- MIC [5]: 8 µM (≈ 19.8 µg/mL)
- MIC [6]: > 32 µM
- MIC [7]: 2 µM (≈ 4.96 µg/mL)
Compound: C[C@H](NC(=O)[C@H](C)NC(=O)[C@H](C)NC(=O)[C@H](Cc1ccccc1)NC(=O)[C@H](C)NC(=O)[C@H](C)NC(=O)[C@H](C)NC(=O)[C@H](CCCCN)NC(=O)[C@@H](N)CCCCN)C(=O)N[C@@H](C)C(=O)N[C@@H](C)C(=O)N[C@@H](Cc1ccccc1)C(=O)N[C@@H](C)C(=O)N[C@@H](C)C(=O)N[C@@H](Cc1c[nH]c2ccccc12)C(=O)N[C@@H](C)C(=O)N[C@@H](C)C(=O)N[C@@H](Cc1ccccc1)C(=O)N[C@@H](C)C(=O)N[C@@H](C)C(=O)N[C@@H](C)C(=O)N[C@@H](CCCCN)C(=O)N[C@@H](CCCCN)C(=O)N[C@@H](CCCCN)C(=O)N[C@@H](CCCCN)C(N)=O [KKAAAFAAAAAFAAWAAFAAAKKKK]

- MIC [1]: 2 µM (≈ 4.39 µg/mL)
- MIC [2]: 0.5 µM (≈ 1.1 µg/mL)
- MIC [3]: > 32 µM
- MIC [4]: 32 µM (≈ 70.3 µg/mL)
- MIC (Escherichia coli DC2): 4 µM (≈ 8.78 µg/mL)
- MIC (Escherichia coli UB1005): 8 µM (≈ 17.6 µg/mL)
- MIC [5]: > 32 µM
- MIC [6]: > 32 µM
- MIC [7]: 8 µM (≈ 17.6 µg/mL)
Compound: C[C@H](NC(=O)[C@H](C)NC(=O)[C@H](C)NC(=O)[C@H](Cc1ccccc1)NC(=O)[C@H](C)NC(=O)[C@H](CCCCN)NC(=O)[C@@H](N)CCCCN)C(=O)N[C@@H](C)C(=O)N[C@@H](C)C(=O)N[C@@H](Cc1ccccc1)C(=O)N[C@@H](C)C(=O)N[C@@H](C)C(=O)N[C@@H](Cc1c[nH]c2ccccc12)C(=O)N[C@@H](C)C(=O)N[C@@H](C)C(=O)N[C@@H](Cc1ccccc1)C(=O)N[C@@H](C)C(=O)N[C@@H](CCCCN)C(=O)N[C@@H](CCCCN)C(=O)N[C@@H](CCCCN)C(=O)N[C@@H](CCCCN)C(N)=O [KKAFAAAAAFAAWAAFAKKKK]
